From ChEMBL document CHEMBL5257023, “Identification of leads for antiproliferative activity on MDA-MB-435 human breast cancer cells through pharmacophore and CYP1A1-mediated metabolism” (Eur J Med Chem, 2016)
pIC50: −log10 of the molar value.

What was measured:
[1] = test system: MDA-MB-468; assay: Anticancer activity against human MDA-MB-468 cells assessed as cell growth at 10 uM incubated for 48 hrs by SRB assay; format: functional; details: read-out: Activity
[2] = biological target: T1, CYP1A1 (Homo sapiens, UniProt P04798); assay: Inhibition of recombinant CYP1A1 (unknown origin) assessed as residual enzyme activity using 7-ethoxyresorufin as substrate at 50 uM incubated for 15 mins by resorufin dye based spectrofluorimetry (reference value: 100%); format: ADME; details: recombinant CYP1A1, probe 7-ethoxyresorufin, read-out: Activity
T1 sequence (P04798 whole entry): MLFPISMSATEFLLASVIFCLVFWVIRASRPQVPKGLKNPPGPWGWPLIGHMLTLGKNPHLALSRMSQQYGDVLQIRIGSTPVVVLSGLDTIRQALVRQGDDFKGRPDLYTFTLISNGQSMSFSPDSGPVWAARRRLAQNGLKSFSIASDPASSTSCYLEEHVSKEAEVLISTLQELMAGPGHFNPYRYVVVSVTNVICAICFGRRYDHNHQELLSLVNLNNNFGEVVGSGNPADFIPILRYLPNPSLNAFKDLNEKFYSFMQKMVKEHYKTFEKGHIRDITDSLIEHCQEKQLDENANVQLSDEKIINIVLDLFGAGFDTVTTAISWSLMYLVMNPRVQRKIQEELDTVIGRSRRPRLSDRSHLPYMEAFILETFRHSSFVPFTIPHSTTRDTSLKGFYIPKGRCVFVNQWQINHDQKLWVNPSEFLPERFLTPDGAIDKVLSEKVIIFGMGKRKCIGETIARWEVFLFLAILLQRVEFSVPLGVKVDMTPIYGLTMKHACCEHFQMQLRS

[3] = test system: MDA-MB-435; assay: Anticancer activity against human MDA-MB-435 cells assessed as cell growth at 10 uM incubated for 48 hrs by SRB assay; format: functional; details: read-out: Activity
[4] = test system: MCF7; assay: Anticancer activity against human MCF7 cells assessed as cell growth at 100 uM incubated for 48 hrs by SRB assay; format: functional; details: read-out: Activity
[5] = test system: NCI-H226; assay: Anticancer activity against human NCI-H226 cells assessed as cell growth at 1 uM incubated for 48 hrs by SRB assay; format: functional; details: read-out: Activity
[6] = biological target: T1, CYP1A1; assay: Inhibition of recombinant CYP1A1 (unknown origin) assessed as residual enzyme activity using 7-ethoxyresorufin as substrate at 5 uM incubated for 15 mins by resorufin dye based spectrofluorimetry (reference value: 100%); format: ADME; details: recombinant CYP1A1, probe 7-ethoxyresorufin, read-out: Activity
[7] = test system: NCI-H226; assay: Anticancer activity against human NCI-H226 cells assessed as cell growth at 100 uM incubated for 48 hrs by SRB assay; format: functional; details: read-out: Activity
[8] = biological target: T1, CYP1A1; assay: Inhibition of recombinant CYP1A1 (unknown origin) assessed as residual enzyme activity using 7-ethoxyresorufin as substrate at 100 uM incubated for 15 mins by resorufin dye based spectrofluorimetry (reference value: 100%); format: ADME; details: recombinant CYP1A1, probe 7-ethoxyresorufin, read-out: Activity
[9] = test system: NCI-H226; assay: Anticancer activity against human NCI-H226 cells assessed as inhibition of cell growth incubated for 48 hrs by SRB assay; format: functional
[10] = test system: MDA-MB-468; assay: Anticancer activity against human MDA-MB-468 cells assessed as cell growth at 0.1 uM incubated for 48 hrs by SRB assay; format: functional; details: read-out: Activity
[11] = test system: MCF7; assay: Anticancer activity against human MCF7 cells assessed as cell growth at 0.1 uM incubated for 48 hrs by SRB assay; format: functional; details: read-out: Activity
[12] = test system: MDA-MB-435; assay: Anticancer activity against human MDA-MB-435 cells assessed as cell growth at 0.1 uM incubated for 48 hrs by SRB assay; format: functional; details: read-out: Activity
[13] = test system: NCI-H226; assay: Anticancer activity against human NCI-H226 cells assessed as cell growth at 10 uM incubated for 48 hrs by SRB assay; format: functional; details: read-out: Activity
[14] = test system: NCI-H226; assay: Anticancer activity against human NCI-H226 cells assessed as cell growth at 0.1 uM incubated for 48 hrs by SRB assay; format: functional; details: read-out: Activity
[15] = test system: MCF7; assay: Anticancer activity against human MCF7 cells assessed as cell growth at 1 uM incubated for 48 hrs by SRB assay; format: functional; details: read-out: Activity
[16] = biological target: T2, Cytochrome P450 1A1 (Homo sapiens, UniProt P04798); assay: Inhibition of recombinant CYP1A1 (unknown origin) assessed as decrease in EROD activity using 7-ethoxyresorufin as substrate incubated for 15 mins by resorufin dye based spectrofluorimetry; format: ADME
T2 sequence (P04798 whole entry): T1 sequence (P04798 whole entry)

[17] = biological target: T1, CYP1A1; assay: Inhibition of recombinant CYP1A1 (unknown origin) assessed as residual enzyme activity using 7-ethoxyresorufin as substrate at 0.1 uM incubated for 15 mins by resorufin dye based spectrofluorimetry (reference value: 100%); format: ADME; details: recombinant CYP1A1, probe 7-ethoxyresorufin, read-out: Activity
[18] = test system: MCF7; assay: Anticancer activity against human MCF7 cells assessed as inhibition of cell growth incubated for 48 hrs by SRB assay; format: functional; details: for CC50: read-out: LC50 (the source's name)
[19] = test system: MDA-MB-468; assay: Anticancer activity against human MDA-MB-468 cells assessed as cell growth at 1 uM incubated for 48 hrs by SRB assay; format: functional; details: read-out: Activity
[20] = test system: MDA-MB-435; assay: Anticancer activity against human MDA-MB-435 cells assessed as cell growth at 100 uM incubated for 48 hrs by SRB assay; format: functional; details: read-out: Activity
[21] = biological target: T1, CYP1A1; assay: Inhibition of recombinant CYP1A1 (unknown origin) assessed as residual enzyme activity using 7-ethoxyresorufin as substrate at 0.01 uM incubated for 15 mins by resorufin dye based spectrofluorimetry (reference value: 100%); format: ADME; details: recombinant CYP1A1, probe 7-ethoxyresorufin, read-out: Activity
[22] = biological target: T1, CYP1A1; assay: Inhibition of recombinant CYP1A1 (unknown origin) assessed as residual enzyme activity using 7-ethoxyresorufin as substrate at 1 uM incubated for 15 mins by resorufin dye based spectrofluorimetry (reference value: 100%); format: ADME; details: recombinant CYP1A1, probe 7-ethoxyresorufin, read-out: Activity
[23] = test system: MCF7; assay: Anticancer activity against human MCF7 cells assessed as cell growth at 10 uM incubated for 48 hrs by SRB assay; format: functional; details: read-out: Activity
[24] = test system: MDA-MB-435; assay: Anticancer activity against human MDA-MB-435 cells assessed as cell growth at 1 uM incubated for 48 hrs by SRB assay; format: functional; details: read-out: Activity
[25] = test system: MDA-MB-468; assay: Anticancer activity against human MDA-MB-468 cells assessed as inhibition of cell growth incubated for 48 hrs by SRB assay; format: functional; details: for CC50: read-out: LC50 (the source's name)
[26] = test system: MDA-MB-435; assay: Anticancer activity against human MDA-MB-435 cells assessed as inhibition of cell growth incubated for 48 hrs by SRB assay; format: functional
[27] = test system: MDA-MB-468; assay: Anticancer activity against human MDA-MB-468 cells assessed as cell growth at 100 uM incubated for 48 hrs by SRB assay; format: functional; details: read-out: Activity
[28] = biological target: T1, CYP1A1; assay: Inhibition of recombinant CYP1A1 (unknown origin) assessed as residual enzyme activity using 7-ethoxyresorufin as substrate at 10 uM incubated for 15 mins by resorufin dye based spectrofluorimetry (reference value: 100%); format: ADME; details: recombinant CYP1A1, probe 7-ethoxyresorufin, read-out: Activity

Row | SMILES | growth at 10 µM [1] [%] | activity at 0.25 h, 50 µM [2] [%] | growth at 10 µM [3] [%] | growth at 100 µM [4] [%] | growth at 1 µM [5] [%] | growth at 100 µM [7] [%] | activity at 0.25 h, 100 µM [8] [%] | GI50 [9] [µM] | LC50 (concentration killing 50% of cells) [9] [µM] | TGI [9] [µM] | growth at 0.1 µM [10] [%] | growth at 0.1 µM [11] [%] | growth at 0.1 µM [12] [%] | growth at 10 µM [13] [%] | growth at 0.1 µM [14] [%] | growth at 1 µM [15] [%] | pIC50 [16] | activity at 0.25 h, 0.1 µM [17] [%] | GI50 [18] [µM] | TGI [18] [µM] | other results
1 | Cc1sc2[nH]c(CNc3ccc(F)cc3)nc(=O)c2c1C | 94.4 | 13.5 | 94.6 | 26.3 | 86.9 | 51.9 | 9.07 | > 100 | > 100 | > 100 | 99.2 | 96.5 | 99.9 | 77.9 | 91.4 | 94 | 6.15 | 85.3 | 65.8 | > 100 | activity at 0.25 h, 5 µM [6]: 23.9%; CC50 [18]: > 100 µM; growth at 1 µM [19]: 95%; growth at 100 µM [20]: 83.5%; activity at 0.25 h, 0.01 µM [21]: 91.7%; activity at 0.25 h, 1 µM [22]: 46%; growth at 10 µM [23]: 84.1%; growth at 1 µM [24]: 97.9%; GI50 [25]: > 100 µM; TGI [25]: > 100 µM; CC50 [25]: > 100 µM; GI50 [26]: > 100 µM; LC50 [26]: > 100 µM; TGI [26]: > 100 µM; growth at 100 µM [27]: 56.8%
2 | Nc1cc(-c2cc3cc(F)ccc3[nH]2)ccc1F | 50 | 18.3 | 17.7 | 44.5 | 83.2 | 30.2 | 17.5 | 62.3 | > 100 | > 100 | 100 | 68.2 | 29.5 | 63 | 97.7 | 63.9 | 6.52 | 60.9 | 69.5 | > 100 | activity at 0.25 h, 5 µM [6]: 22.4%; CC50 [18]: > 100 µM; growth at 1 µM [19]: 96.4%; growth at 100 µM [20]: 14.9%; activity at 0.25 h, 0.01 µM [21]: 76.5%; activity at 0.25 h, 1 µM [22]: 39.8%; growth at 10 µM [23]: 55%; growth at 1 µM [24]: 21.5%; GI50 [25]: 36.5 µM; TGI [25]: 84.7 µM; CC50 [25]: > 100 µM; GI50 [26]: < 0.1 µM; LC50 [26]: > 100 µM; TGI [26]: > 100 µM; growth at 100 µM [27]: -14.4%
3 | Cc1cc(C)n2ncc(C(=O)NCc3ccc(Cl)cc3)c2n1 | 77.6 | 64.7 | 98.1 | 20.6 | 87.8 | 58.3 | 50.8 | > 100 | > 100 | > 100 | 90.9 | 90.1 | 100 | 82.6 | 90.9 | 88.2 | 5.00 | 89.8 | 57.7 | > 100 | activity at 0.25 h, 5 µM [6]: 71.8%; CC50 [18]: > 100 µM; growth at 1 µM [19]: 82.6%; growth at 100 µM [20]: 70%; activity at 0.25 h, 0.01 µM [21]: 98.7%; growth at 10 µM [23]: 80.4%; growth at 1 µM [24]: 99.9%; GI50 [25]: 58.5 µM; TGI [25]: > 100 µM; CC50 [25]: > 100 µM; GI50 [26]: > 100 µM; LC50 [26]: > 100 µM; TGI [26]: > 100 µM; growth at 100 µM [27]: 23.6%
4 | Cc1ccc(-c2cc3cc(F)ccc3[nH]2)cc1N | 99.8 | 10.6 | 30.6 | 67.1 | 100 | 90 | 8.54 | > 100 | > 100 | > 100 | 100 | 100 | 47.8 | 98.9 | 100 | 73.1 | 6.89 | 52.6 | > 100 | > 100 | activity at 0.25 h, 10 µM [28]: 12.8%; CC50 [18]: > 100 µM; growth at 1 µM [19]: 100%; growth at 100 µM [20]: 23.1%; activity at 0.25 h, 0.01 µM [21]: 96.8%; activity at 0.25 h, 1 µM [22]: 35.3%; growth at 10 µM [23]: 70.9%; growth at 1 µM [24]: 40%; GI50 [25]: > 100 µM; TGI [25]: > 100 µM; CC50 [25]: > 100 µM; GI50 [26]: < 0.1 µM; LC50 [26]: > 100 µM; TGI [26]: > 100 µM; growth at 100 µM [27]: 96.8%
